What was measured:
[1] = system: reactive oxygen species; assay: luminol and lucigenin chemiluminescence of blood or urine samples (in vitro); design: species or system Wistar rats; settings: PPD i.p. for 4 weeks
Experimental: To determine the effect of the drug prepared from the nickel complex WCt003 and WCt006 on eliminating reactive oxygen species, a luminol and lucigenin chemiluminescence (CL) method was utilized. The method includes the following steps: 0.2 ml sample of blood or urine was mixed with 0.5 ml of 1 mmol/L lucigenin or 0.2 mmol/L luminol, and then the mixture was analyzed with a chemiluminescence analysis system, wherein, the recorded signals were corresponding to the hydrogen peroxide (H2O2) and hypochlorous acid (HOCl) count in the luminol method, while the recorded signals were corresponding to the superoxide anion (O2^−) count in the lucigenin method.

[2] = system: reactive oxygen species in the bladder cells; assay: reactive oxygen species count in the bladder (in vivo); design: species or system Wistar rats; settings: PPD alone i.p. for 4 weeks, FIG. 9 and 10
Experimental: (§1) In the current embodiment, 24 adult female Wistar rats were adopted as the experimental animals in the animal experiments and were randomly divided into four groups to be treated with different intraperitoneal injections. Referring to Table 1, the four groups are as follows: 1) the control group: 1 mL/day saline solution for 4 weeks; 2) the first experimental group: PPD (60 […]) for 4 weeks; 3) the second group: PPD ([…]) for 4 weeks and a drug (1.5 mg/kg/day) prepared from WCT003 for the last 2 weeks of; 4) the third experimental group: PPD (60 μg/kg/day) for 4 weeks and a drug (1.5 mg/kg/day) prepared from WCT006 for the last 2 weeks.
FIG. 10 show the analytical data of the reactive oxygen species count in vivo for each group of rats. It could be seen from FIG. 9 and FIG. 10 that the reactive oxygen species count in the bladder cells of the first experimental group of rats is much higher than that of the control group.

[3] = system: adult female Wistar rats; assay: metabolic cage sample data; assay type: in vivo
Experimental: as §1
Referring to Table 2, which lists the sample data collected from the rats of the control group and the first experimental group where were placed in the metabolic cage: […]

[4] = system: bladder of adult female Wistar rats; assay: intravesical pressure measurement in para-phenylenediamine-treated rats; assay type: in vivo
Experimental: as §1
Then, each group of the rats were anesthetized with urethane (1.2 g/kg) via percutaneously injection, and a catheter was placed in a left femoral artery of each of the rats to measure arterial pressure (ABP). Meanwhile, intravesical pressure of the rats were also measured to obtain the parameters such as bladder intercontraction interval (ICI), urination time (MT), maximum urination pressure (MVP), contraction amplitude (A=MVP-BP), urination pressure threshold (PT), etc., as shown in FIG. 3 to FIG. 5.

[5] = system: bladder tissue of adult female Wistar rats; assay: bladder tissue slices and perfusion unit after para-phenylenediamine; assay type: in vivo; settings: PPD i.p. for 4 weeks vs control group
Experimental: as §1
It could be known from the experiment data that para-phenylenediamine induces inflammatory response and ischemia in the bladders of the rats in the first experimental group.

[6] = first experimental group: PPD i.p. for 4 weeks
[7] = first experimental group: PPD alone i.p. for 4 weeks

Nc1ccc(N)cc1 [para-phenylenediamine]
O2− count in the blood sample vs control group ([1]; blood, lucigenin, FIG. 8): higher | H2O2 and HOCl counts in the blood sample vs control group ([1]; blood, luminol, FIG. 8): significantly higher | reactive oxygen species count in urine samples vs control group ([1]; urine, FIG. 7): no significant difference | reactive oxygen species count in the bladder cells vs control group [2]: much higher | stool vs control group ([3]; PPD i.p. for 4 weeks, in words): more | urinary frequency vs control group ([3]; PPD i.p. for 4 weeks, in words): more frequent | urine vs control group ([3]; PPD i.p. for 4 weeks, in words): more | Body Weight [3, 6]: 277.8 ± 3.8 g | Food [3, 6]: 22.9 ± 4.4 g | Stool [3, 6]: 35.7 ± 8.1 g | Urinary frequency (24 hours) [3, 6]: 53.1 ± 13.3 | Urine [3, 6]: 32.7 ± 7.5 mg | Water intake [3, 6]: 57.7 ± 7.2 mL | bladder intercontraction interval vs control group ([4]; PPD i.p., in words, Table 3 and FIG. 6): significantly shorter | A (contraction amplitude) [4, 7]: 20.3 ± 0.9 mmHg | ICI (bladder intercontraction interval) [4, 7]: 35.8 ± 6.0 s | MVP (maximum urination pressure) [4, 7]: 30.6 ± 0.9 mmHg | mast cell in the bladder ([5]; FIG. 1): significant increase | neutrophil infiltration in the bladder tissue ([5]; FIG. 1): have neutrophil infiltration in the bladder tissue | perfusion unit ([5]; FIG. 2): reduced

From patent US20190343874A1, “USE OF NICKEL COMPLEX IN PREPARING DRUG FOR RELIEVING INFLAMMATION” (NATIONAL TAIWAN NORMAL UNIVERSITY, priority 2018, published 2019)
